Holding throughout (assay type): functional
For one assay, the system named is Candida albicans. As to the kind of experiment: Antifungal activity against Candida albicans MTCC 227 assessed as growth inhibition after 48 hr by broth microdilution method. As to conditions: MTCC 227, 48 h.
For a further assay, the system named is Aspergillus niger. As to the kind of experiment: Antifungal activity against Aspergillus niger MTCC 282 assessed as growth inhibition after 48 hr by broth microdilution method. As to conditions: MTCC 282, 48 h. Background: Dilution methods test growth across graded concentrations, often in twofold steps.
The subject of the next assay is Klebsiella pneumoniae. Briefly: Antibacterial activity against Klebsiella pneumoniae MTCC 139 assessed as growth inhibition after 24 hr by broth microdilution method. Particulars: MTCC 139, 24 h.
Another assay has as its system Pseudomonas aeruginosa. Briefly: Antibacterial activity against Pseudomonas aeruginosa MTCC 1688 assessed as growth inhibition after 24 hr by broth microdilution method. Particulars: MTCC 1688, 24 h.
A further assay has as its system Escherichia coli. As to the kind of experiment: Antibacterial activity against Escherichia coli MTCC 443 assessed as growth inhibition after 24 hr by broth microdilution method. Particulars: MTCC 443, 24 h.
Another assay has as its system Bacillus cereus. Briefly: Antibacterial activity against Bacillus cereus MTCC 1305 assessed as growth inhibition after 24 hr by broth microdilution method. As to conditions: MTCC 1305, 24 h.
A further assay relates to Staphylococcus aureus. As to the kind of experiment: Antibacterial activity against Staphylococcus aureus MTCC 2940 assessed as growth inhibition after 24 hr by broth microdilution method. As to conditions: MTCC 2940, 24 h.

Values after ≈ are worked out from the molar mass of the structure shown.

What is called MIC is the least concentration at which growth counts as inhibited. In the case of `Nc1ccc(S(=O)(=O)NCc2nc3ccccc3c(=O)n2-c2ccccc2)cc1`, the minimal inhibitory concentration (MIC) with Candida albicans was determined as 100 µg/mL (≈ 246 µM); in the assay on Aspergillus niger it was 90 µg/mL (≈ 221 µM); with Klebsiella pneumoniae it was 95 µg/mL (≈ 234 µM); with Pseudomonas aeruginosa, 85 µg/mL (≈ 209 µM); with Escherichia coli, 80 µg/mL (≈ 197 µM); in the assay with Bacillus cereus it was 95 µg/mL (≈ 234 µM). Further, in the assay with Staphylococcus aureus, the minimal inhibitory concentration (MIC) was 85 µg/mL (≈ 209 µM).

As for `CC(=O)Nc1ccc(S(=O)(=O)NCc2nc3ccccc3c(=O)n2-c2ccccc2)cc1`, the minimum inhibitory concentration (MIC) with Candida albicans worked out at 105 µg/mL (≈ 234 µM); in the assay with Aspergillus niger, 95 µg/mL (≈ 212 µM); with Klebsiella pneumoniae, 130 µg/mL (≈ 290 µM); in the assay on Pseudomonas aeruginosa, 125 µg/mL (≈ 279 µM); in the assay with Escherichia coli, 110 µg/mL (≈ 245 µM); with Bacillus cereus it was 115 µg/mL (≈ 256 µM). Besides, the MIC in the assay with Staphylococcus aureus stood at 95 µg/mL (≈ 212 µM).

Consider `Cc1ccccc1-n1c(CNS(=O)(=O)c2ccc(N)cc2)nc2ccccc2c1=O`, for which the MIC with Candida albicans is 100 µg/mL (≈ 238 µM); in the assay with Aspergillus niger, 90 µg/mL (≈ 214 µM); with Klebsiella pneumoniae it was 100 µg/mL (≈ 238 µM); in the assay on Pseudomonas aeruginosa, 80 µg/mL (≈ 190 µM); in the assay with Escherichia coli, 70 µg/mL (≈ 166 µM); in the assay with Bacillus cereus, 105 µg/mL (≈ 250 µM). Moreover, the MIC in the assay with Staphylococcus aureus amounted to 90 µg/mL (≈ 214 µM).

For `Cc1cccc(-n2c(CNS(=O)(=O)c3ccc(N)cc3)nc3ccccc3c2=O)c1`, the minimal inhibitory concentration (MIC) amounted to 95 µg/mL (≈ 226 µM) in the assay on Candida albicans; 85 µg/mL (≈ 202 µM) in the assay with Aspergillus niger; 115 µg/mL (≈ 273 µM) in the assay with Klebsiella pneumoniae; 85 µg/mL (≈ 202 µM) in the assay with Pseudomonas aeruginosa; 65 µg/mL (≈ 155 µM) in the assay on Escherichia coli; 100 µg/mL (≈ 238 µM) with Bacillus cereus. Further, the MIC in the assay on Staphylococcus aureus was 85 µg/mL (≈ 202 µM).

Take `Cc1ccc(-n2c(CNS(=O)(=O)c3ccc(N)cc3)nc3ccccc3c2=O)cc1`: the minimal inhibitory concentration (MIC) with Candida albicans was determined as 80 µg/mL (≈ 190 µM); in the assay on Aspergillus niger, 75 µg/mL (≈ 178 µM); in the assay with Klebsiella pneumoniae, 90 µg/mL (≈ 214 µM); in the assay with Pseudomonas aeruginosa it was 70 µg/mL (≈ 166 µM); in the assay with Escherichia coli, 65 µg/mL (≈ 155 µM); in the assay on Bacillus cereus, 95 µg/mL (≈ 226 µM). In addition, the minimal inhibitory concentration (MIC) with Staphylococcus aureus worked out at 80 µg/mL (≈ 190 µM).

In the case of `CC(=O)Nc1ccc(S(=O)(=O)NCc2nc3ccccc3c(=O)n2-c2ccccc2C)cc1`, the minimum inhibitory concentration (MIC) was 90 µg/mL (≈ 195 µM) with Candida albicans; 80 µg/mL (≈ 173 µM) in the assay on Aspergillus niger; 125 µg/mL (≈ 270 µM) with Klebsiella pneumoniae; 120 µg/mL (≈ 259 µM) in the assay on Pseudomonas aeruginosa; 90 µg/mL (≈ 195 µM) with Escherichia coli; 115 µg/mL (≈ 249 µM) in the assay on Bacillus cereus. Further, the minimum inhibitory concentration (MIC) with Staphylococcus aureus amounted to 100 µg/mL (≈ 216 µM).

In the case of `CC(=O)Nc1ccc(S(=O)(=O)NCc2nc3ccccc3c(=O)n2-c2cccc(C)c2)cc1`, the minimal inhibitory concentration (MIC) in the assay with Candida albicans was determined as 80 µg/mL (≈ 173 µM); in the assay on Aspergillus niger, 75 µg/mL (≈ 162 µM); in the assay with Klebsiella pneumoniae it was 120 µg/mL (≈ 259 µM); with Pseudomonas aeruginosa it was 115 µg/mL (≈ 249 µM); in the assay with Escherichia coli it was 80 µg/mL (≈ 173 µM); in the assay on Bacillus cereus it was 105 µg/mL (≈ 227 µM). Moreover, in the assay with Staphylococcus aureus, the MIC stood at 95 µg/mL (≈ 205 µM).

Turning to `CC(=O)Nc1ccc(S(=O)(=O)NCc2nc3ccccc3c(=O)n2-c2ccc(C)cc2)cc1`, the MIC is 85 µg/mL (≈ 184 µM) in the assay on Candida albicans; 70 µg/mL (≈ 151 µM) in the assay on Aspergillus niger; 115 µg/mL (≈ 249 µM) in the assay with Klebsiella pneumoniae; 105 µg/mL (≈ 227 µM) with Pseudomonas aeruginosa; 85 µg/mL (≈ 184 µM) in the assay with Escherichia coli; 105 µg/mL (≈ 227 µM) in the assay with Bacillus cereus. In addition, in the assay with Staphylococcus aureus, the MIC amounted to 95 µg/mL (≈ 205 µM).

As for `COc1ccccc1-n1c(CNS(=O)(=O)c2ccc(N)cc2)nc2ccccc2c1=O`, the minimal inhibitory concentration (MIC) worked out at 65 µg/mL (≈ 149 µM) with Candida albicans; 55 µg/mL (≈ 126 µM) in the assay on Aspergillus niger; 95 µg/mL (≈ 218 µM) with Klebsiella pneumoniae; 80 µg/mL (≈ 183 µM) with Pseudomonas aeruginosa; 65 µg/mL (≈ 149 µM) in the assay with Escherichia coli; 80 µg/mL (≈ 183 µM) in the assay with Bacillus cereus. Besides, in the assay on Staphylococcus aureus, the MIC is 85 µg/mL (≈ 195 µM).

Turning to `COc1cccc(-n2c(CNS(=O)(=O)c3ccc(N)cc3)nc3ccccc3c2=O)c1`, the MIC with Candida albicans was found to be 50 µg/mL (≈ 115 µM); with Aspergillus niger, 50 µg/mL (≈ 115 µM); in the assay on Klebsiella pneumoniae, 90 µg/mL (≈ 206 µM); in the assay with Pseudomonas aeruginosa, 85 µg/mL (≈ 195 µM); in the assay on Escherichia coli, 60 µg/mL (≈ 137 µM); with Bacillus cereus, 75 µg/mL (≈ 172 µM). Further, the MIC in the assay on Staphylococcus aureus is 80 µg/mL (≈ 183 µM).

In the case of `COc1ccc(-n2c(CNS(=O)(=O)c3ccc(N)cc3)nc3ccccc3c2=O)cc1`, the MIC in the assay on Candida albicans is 55 µg/mL (≈ 126 µM); in the assay with Aspergillus niger, 45 µg/mL (≈ 103 µM); with Klebsiella pneumoniae, 75 µg/mL (≈ 172 µM); with Pseudomonas aeruginosa, 75 µg/mL (≈ 172 µM); in the assay on Escherichia coli it was 50 µg/mL (≈ 115 µM); in the assay on Bacillus cereus, 70 µg/mL (≈ 160 µM). Besides, in the assay with Staphylococcus aureus, the MIC was 60 µg/mL (≈ 137 µM).

As to `COc1ccccc1-n1c(CNS(=O)(=O)c2ccc(NC(C)=O)cc2)nc2ccccc2c1=O`, the MIC turned out to be 80 µg/mL (≈ 167 µM) in the assay on Candida albicans; 70 µg/mL (≈ 146 µM) in the assay with Aspergillus niger; 105 µg/mL (≈ 219 µM) in the assay with Klebsiella pneumoniae; 110 µg/mL (≈ 230 µM) in the assay with Pseudomonas aeruginosa; 80 µg/mL (≈ 167 µM) with Escherichia coli; 95 µg/mL (≈ 199 µM) in the assay on Bacillus cereus. Further, the MIC with Staphylococcus aureus is 90 µg/mL (≈ 188 µM).

As to `Cc1ccccc1-n1c(C)nc2ccccc2c1=O` [METHAQUALONE], the MIC was 125 µg/mL (≈ 499 µM) in the assay with Candida albicans; 90 µg/mL (≈ 360 µM) in the assay with Aspergillus niger; 115 µg/mL (≈ 459 µM) with Klebsiella pneumoniae; 100 µg/mL (≈ 400 µM) with Pseudomonas aeruginosa; 75 µg/mL (≈ 300 µM) in the assay on Escherichia coli; 140 µg/mL (≈ 559 µM) with Bacillus cereus. Besides, in the assay with Staphylococcus aureus, the MIC is 125 µg/mL (≈ 499 µM).

Take `Nc1ccc(S(N)(=O)=O)cc1` [SULFANILAMIDE]: the MIC with Candida albicans worked out at 60 µg/mL (≈ 348 µM); with Aspergillus niger, 50 µg/mL (≈ 290 µM); in the assay on Klebsiella pneumoniae, 80 µg/mL (≈ 465 µM); in the assay with Pseudomonas aeruginosa, 65 µg/mL (≈ 377 µM); with Escherichia coli, 55 µg/mL (≈ 319 µM); in the assay with Bacillus cereus it was 55 µg/mL (≈ 319 µM). Also, the minimal inhibitory concentration (MIC) with Staphylococcus aureus was determined as 50 µg/mL (≈ 290 µM).

These data come from ChEMBL document CHEMBL3046289, “Synthesis and in vitro antimicrobial activity of some newer quinazolinonesulfonamide linked hybrid heterocyclic entities derived from glycine” (2013).
